Source: ChEMBL document CHEMBL1158660, “Potential anticancer agents. XIV. Isolation of spruceanol and montanin from Cunuria spruceana (Euphorbiaceae)” (1979)
Values after ≈ are worked out from the molar mass of the structure shown.

System: P388
Test: Cytotoxicity against mouse P388 cells
Assay type: functional
Settings: read-out: ED50 (the source's name)

| SMILES | EC50 [µg/mL] |
| --- | --- |
| C=C(C)[C@]12C[C@@H](C)[C@@]34O[C@](CCCCCCCCCCC)(O[C@@H]1[C@@H]3[C@@H]1O[C@]1(CO)[C@@H](O)[C@]1(O)C(=O)C(C)=C[C@H]14)O2 [MONTANIN] | 0.06 (≈ 0.107 µM) |
| C=Cc1c(C)c(O)cc2c1CC[C@@H]1C(C)(C)[C@H](O)CC[C@@]21C [SPRUCEANOL] | 3.2 (≈ 10.7 µM) |
